Reference: patent US8431603B2, “3-phenylpyrazolo[5,1-b]thiazole compounds” (Eisai R&D Management Co., Ltd., priority 2008, dated 2013)

Legend:
Balb/c mice = assay: Light/dark box test in mice (anxiolytic effect); assay type: in vivo; settings: for anxiolytic effect in the light/dark box test: 30 mg/kg, oral administration; for minimal effective dose: Mus musculus, 1 h, minimum dose significantly prolonging time spent in the light box vs vehicle, oral, one hour prior to test
Procedure: The light/dark box test in mice was carried out according to a modified method of Belzung C., Misslin R., Vogel E. et al. (Reference; Behavioural effects of the benzodiazepine receptor partial agonist RO16-6028 in mice, Psychopharmacology, 97, 388-391, 1989). The test apparatus used was a light/dark box comprising a covered black acrylic box (dark box; 15×10×20 cm), an uncovered white acrylic box (light box; 15×20×20 cm) and a black acrylic tunnel (10×7×4.5 cm) which connects dark box and light box and enables a mouse to freely move back and forth between the dark box and light box. In this test apparatus, however, a transparent acrylic polymer was used for the front side (20×20 cm) and back side (20×20 cm) of the light box to allow observation of the behavior. After setting illumination so that the light intensity of the floor of the light box was 150 Lux, 5-week-old male Balb/c mice (purchased from Nihon Charles River) were introduced into the dark box at the beginning of the test. For the test, the tested compound was suspended in 5% dimethylsulfoxide, 5% Cremopor EL and 90% physiological saline and orally administered to the test animals one hour prior to the start of the test.
The time spent in the light box was measured as an index of the anxiolytic effect, with “spend in the light box” defined as the state in which all limbs of the mice were on the floor of the light box. […] The statistical significance between the vehicle-treated group and the test compound-treated groups was analyzed by one way analysis of variance followed by Dunnett multiple comparison when multiple doses were set for the same test, and by the Mann-Whitney U test when only one dose was set.

human CRFR1 = molecular target: T1, human CRFR1 (Homo sapiens, UniProt P34998); assay: CRFR1 binding test (SPA competition with 125I-CRF, membrane fraction of CRFR1-expressing HEK293 cells); settings: 100 pM 125I-CRF, room temperature, read-out: CRF1 receptor binding capacity IC50
T1 construct: The full-length CRFR1 gene was obtained by PCR using human brain cDNA library; expressed in transfected cells; pcDNA3.1 expression vector; membrane fraction used
T1 sequence (P34998 24-415): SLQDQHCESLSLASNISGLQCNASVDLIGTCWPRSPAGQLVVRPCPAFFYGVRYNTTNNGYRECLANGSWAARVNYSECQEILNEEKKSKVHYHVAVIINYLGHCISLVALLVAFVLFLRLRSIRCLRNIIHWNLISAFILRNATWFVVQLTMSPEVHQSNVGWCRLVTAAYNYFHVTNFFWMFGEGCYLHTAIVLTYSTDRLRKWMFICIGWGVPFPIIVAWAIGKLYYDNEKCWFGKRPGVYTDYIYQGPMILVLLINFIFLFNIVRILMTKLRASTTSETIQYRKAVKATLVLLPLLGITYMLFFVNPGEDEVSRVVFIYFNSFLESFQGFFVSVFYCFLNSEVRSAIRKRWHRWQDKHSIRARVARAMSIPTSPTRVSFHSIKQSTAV
Procedure: The binding capacities of the compounds of the invention for CRF1 receptor (CRFR1) were evaluated.
The membrane fraction of human CRFR1 high-expressing cells was used as the material for a CRFR1 binding experiment. The CRFR1-expressing cells were prepared in the following manner. The full-length CRFR1 gene was obtained by PCR using human brain cDNA library (QuickClone™ Clontech). The obtained DNA fragment was inserted into a cloning vector and the nucleotide sequence was confirmed. cDNA having the proper nucleotide sequence was linked to an expression vector (pcDNA3.1™, Invitrogen). The CRFR1 expression vector was introduced into HEK293 cell, and the resistant cells which proliferated in culture medium containing G418 (1 mg/ml) were cloned by the limiting dilution method. Out of the cloned cells, cells having high binding affinity between the membrane fraction per unit of protein and sauvagine were selected according to the following binding experiment. And the selected cells were used for the experiments.
The cloned cells obtained in (1) were collected and suspended in ice-cooled membrane buffer (50 mM Tris-HCl, 5 mM MgCl2, 2 mM EGTA, 1 mM DTT, protease inhibitor cocktail (COMPLETE™, Roche Diagnostics) pH 7.3), and then the cells were disrupted with a Polytron ([…]) while cooling on ice (level 5, 10 seconds, 2-5 times, ice-cooling) and then centrifuged (2,000 rpm, 5 minutes, 4° C.), after which the supernatant was collected. Membrane buffer was added to the precipitate, and the mixture was subjected to Polytron treatment (same conditions as above) and centrifuged (same conditions as above), and the obtained supernatant was collected and combined with the previous supernatant. This was centrifuged (13,000 rpm (18,000×g), 30 minutes, 4° C.) to prepare cell membranes. The precipitated cell membranes were suspended in membrane buffer and disrupted with a Polytron (level 5, 10 seconds, 3-5 times, ice-cooling) to prepare a dispersed suspension. The protein assay was performed.
The following method (1) or (2) was performed for use as the cell membrane fraction.
(1) The above dispersed suspension was diluted with membrane buffer containing 0.1% BSA to a protein concentration of 200 μg/ml, for use as the cell membrane fraction
(2) The above dispersed suspension was frozen for preservation, and if needed, thawed, re-dispersed and diluted for used as the cell membrane fraction.
A binding competition experiment with CRF was conducted by the SPA (GE Healthcare) method using a 96-well plate. A mixture of 5 μg of the cell membrane fraction protein, 1 mg of SPA beads and 100 pM ^125I-CRF (Perkin Elmer) was allowed to stand at room temperature for at least 2 hours in the presence of a test compound, and the radioactivity of each well after centrifugation (1,200 rpm (260×g), 5 minutes, room temperature) was measured with a TopCount (registered trademark; Perkin Elmer).
The radioactivity with addition of a 4,000-fold excess of non-radioactive sauvagine as the nonspecific binding was subtracted from each value, and the resulting value was expressed as a percentage (% of control), with 100% as the radioactivity without addition of the test compound (control). The IC50 value was calculated from a binding inhibition curve drawn with test compound concentration on the horizontal axis and % (% of control) on the vertical axis.

SMILES | IC50 (human CRFR1) | anxiolytic effect in the light/dark box test (Balb/c mice) | minimal effective dose (Balb/c mice)
CCCCN(c1c(OC)nn2c(-c3c(OC)cc(COC)cc3OC)csc12)C1CCOCC1 [Example 1, N-Butyl-3-[2,6-dimethoxy-4-(methoxymethyl)phenyl]-6-methoxy-N-(tetrahydro-2H-pyran-4-yl)pyrazolo[5,1-b][1,3]thiazole-7-amine] |  | statistically significant effects | 30 mg/kg
CCCCN(c1c(OC)nn2c(-c3c(OC)cc(COCC)cc3OC)csc12)C1CCOCC1 [Example 2, N-Butyl-3-[4-(ethoxymethyl)-2,6-dimethoxyphenyl]-6-methoxy-N-(tetrahydro-2H-pyran-4-yl)pyrazolo[5,1-b][1,3]thiazole-7-amine] |  | statistically significant effects | 30 mg/kg
CCOCc1cc(OC)c(-c2csc3c(N(CC4CC4)C4CCCOC4)c(OC)nn23)c(OC)c1 (stereo not drawn) [Example 5, N-(Cyclopropylmethyl)-3-[4-(ethoxymethyl)-2,6-dimethoxyphenyl]-6-methoxy-N-(tetrahydro-2H-pyran-3-yl)pyrazolo[5,1-b][1,3]thiazole-7-amine] | 0.029 µM | statistically significant effects | 30 mg/kg
CCCN(c1c(OC)nn2c(-c3c(OC)cc(COCC)cc3OC)csc12)C1CCCOC1 (stereo not drawn) [Example 6, 3-[4-(Ethoxymethyl)-2,6-dimethoxyphenyl]-6-methoxy-N-propyl-N-(tetrahydro-2H-pyran-3-yl)pyrazolo[5,1-b][1,3]thiazole-7-amine] | 0.039 µM |  | 
COCc1cc(OC)c(-c2csc3c(N(CC4CC4)C4CCOCC4)c(OC)nn23)c(OC)c1 [Example 9, N-(Cyclopropylmethyl)-3-[2,6-dimethoxy-4-(methoxymethyl)phenyl]-6-methoxy-N-(tetrahydro-2H-pyran-4-yl)pyrazolo[5,1-b][1,3]thiazole-7-amine] |  | statistically significant effects | 30 mg/kg
CCCN(c1c(OC)nn2c(-c3c(OC)cc(COC)cc3OC)csc12)C1CCOCC1 [Example 10, 3-[2,6-Dimethoxy-4-(methoxymethyl)phenyl]-6-methoxy-N-propyl-N-(tetrahydro-2H-pyran-4-yl)pyrazolo[5,1-b][1,3]thiazole-7-amine] |  | statistically significant effects | 30 mg/kg
COCc1cc(OC)c(-c2csc3c(N(CC4CC4)C4CCCOC4)c(OC)nn23)c(OC)c1 (stereo not drawn) [Example 11, N-(Cyclopropylmethyl)-3-[2,6-dimethoxy-4-(methoxymethyl)phenyl]-6-methoxy-N-(tetrahydro-2H-pyran-3-yl)pyrazolo[5,1-b][1,3]thiazole-7-amine] | 0.037 µM |  | 
COCc1cc(OC)c(-c2csc3c(N(CC4CC4C)C4CCOCC4)c(OC)nn23)c(OC)c1 (stereo not drawn) [Example 12, 3-[2,6-Dimethoxy-4-(methoxymethyl)phenyl]-6-methoxy-N-[(2-methylcyclopropyl)methyl]-N-(tetrahydro-2H-pyran-4-yl)pyrazolo[5,1-b][1,3]thiazole-7-amine] | 0.082 µM |  | 
CCCN(c1c(OC)nn2c(-c3c(Cl)cc(COC)cc3OC)csc12)C1CCOCC1 [Example 13, 3-[2-Chloro-6-methoxy-4-(methoxymethyl)phenyl]-6-methoxy-N-propyl-N-(tetrahydro-2H-pyran-4-yl)pyrazolo[5,1-b][1,3]thiazole-7-amine] |  | statistically significant effects | 30 mg/kg
COc1cc(C#N)cc(OC)c1-c1csc2c(N(CC3CCOCC3)CC3CC3)c(OC)nn12 [Example 15, 4-{7-[(Cyclopropylmethyl)(tetrahydro-2H-pyran-4-ylmethyl)amino]-6-methoxypyrazolo[5,1-b][1,3]thiazol-3-yl}-3,5-dimethoxybenzonitrile] | 0.07 µM |  | 
COc1cc(OC)c(-c2csc3c(N(CC4CCOCC4)CC4CC4)c(OC)nn23)c(OC)c1 [Example 16, N-(Cyclopropylmethyl)-6-methoxy-N-(tetrahydro-2H-pyran-4-ylmethyl)-3-(2,4,6-trimethoxyphenyl)-pyrazolo[5,1-b][1,3]thiazole-7-amine] | 0.029 µM |  | 

Second part, led by results:

IC50 (human CRFR1) | SMILES | anxiolytic effect in the light/dark box test (Balb/c mice) | minimal effective dose (Balb/c mice)
0.065 µM | CCOCc1cc(OC)c(-c2csc3c(N(CCC4CC4)C4CCOCC4)c(OC)nn23)c(OC)c1 [Example 3, N-(2-Cyclopropylethyl)-3-[4-(ethoxymethyl)-2,6-dimethoxyphenyl]-6-methoxy-N-(tetrahydro-2H-pyran-4-yl)pyrazolo[5,1-b][1,3]thiazole-7-amine] | statistically significant effects | 30 mg/kg
0.034 µM | CCOCc1cc(OC)c(-c2csc3c(N(CC4CCC4)C4CCOCC4)c(OC)nn23)c(OC)c1 [Example 4, N-(Cyclobutylmethyl)-3-[4-(ethoxymethyl)-2,6-dimethoxyphenyl]-6-methoxy-N-(tetrahydro-2H-pyran-4-yl)pyrazolo[5,1-b][1,3]thiazole-7-amine] | statistically significant effects | 30 mg/kg
0.046 µM | COCc1cc(OC)c(-c2csc3c(N(CC4CCC4)C4CCOCC4)c(OC)nn23)c(OC)c1 [Example 7, N-(Cyclobutylmethyl)-3-[2,6-dimethoxy-4-(methoxymethyl)phenyl]-6-methoxy-N-(tetrahydro-2H-pyran-4-yl)pyrazolo[5,1-b][1,3]thiazole-7-amine] |  | 
0.063 µM | CCCCCN(c1c(OC)nn2c(-c3c(OC)cc(COC)cc3OC)csc12)C1CCOCC1 [Example 8, 3-[2,6-Dimethoxy-4-(methoxymethyl)phenyl]-6-methoxy-N-pentyl-N-(tetrahydro-2H-pyran-4-yl)pyrazolo[5,1-b][1,3]thiazole-7-amine] |  | 
0.036 µM | CCCN(c1c(OC)nn2c(-c3c(OC)cc(COC4CCC4)cc3OC)csc12)C1CCOCC1 [Example 17, 3-{4-[(Cyclobutyloxy)methyl]-2,6-dimethoxyphenyl}-6-methoxy-N-propyl-N-(tetrahydro-2H-pyran-4-yl)pyrazolo[5,1-b][1,3]thiazole-7-amine] |  | 
